The record followed here is ChEMBL document CHEMBL1146779, “Bridgehead-methyl analog of SC-53116 as a 5-HT4 agonist” (Bioorg Med Chem Lett, 2004).

Assay [1] concerns the target T1, 5-hydroxytryptamine receptor 4 (Rattus norvegicus, UniProt Q62758). Description: Compound was tested for agonist activity at the 5-hydroxytryptamine 4 receptor in the rat tunica muscularis mucosae (TMM) assay; IN = Inactive. The class given is functional, tissue-based, Muscularis mucosa.
Assay [2] deals with T1, 5-hydroxytryptamine receptor 4. Briefly: Compound was tested for agonist activity at the 5-hydroxytryptamine 4 receptor in the rat tunica muscularis mucosae (TMM) assay. Type of assay: functional, tissue-based, Muscularis mucosa.
Assay [3] concerns the target Serotonin 1 (5-HT1) receptor (Rattus norvegicus, UniProt P28564+P30940+P19327+P28565). Briefly: Compound was evaluated for 5-hydroxytryptamine 1 receptor binding. Type of assay: protein assay.
The target of assay [4] is Serotonin 2 (5-HT2) receptor (Homo sapiens, UniProt P41595+P28223+P28335). Description: Compound was evaluated for 5-hydroxytryptamine 2 receptor binding. Type of assay: protein assay.
Assay [5] addresses T1, 5-hydroxytryptamine receptor 4. Description: Tested for agonist activity at the 5-hydroxytryptamine 4 receptor in the rat tunica muscularis mucosae (TMM) assay of racemate mixture. Type of assay: functional.
For assay [6], the target named is Serotonin 3 (5-HT3) receptor. Description: Compound was evaluated for 5-hydroxytryptamine 3 receptor binding. Type of assay: protein-complex assay.
Assay [7] has as its target T2, Adrenergic receptor alpha-2 (Homo sapiens, UniProt P08913+P18825+P18089).
T2 sequence (P08913 whole entry): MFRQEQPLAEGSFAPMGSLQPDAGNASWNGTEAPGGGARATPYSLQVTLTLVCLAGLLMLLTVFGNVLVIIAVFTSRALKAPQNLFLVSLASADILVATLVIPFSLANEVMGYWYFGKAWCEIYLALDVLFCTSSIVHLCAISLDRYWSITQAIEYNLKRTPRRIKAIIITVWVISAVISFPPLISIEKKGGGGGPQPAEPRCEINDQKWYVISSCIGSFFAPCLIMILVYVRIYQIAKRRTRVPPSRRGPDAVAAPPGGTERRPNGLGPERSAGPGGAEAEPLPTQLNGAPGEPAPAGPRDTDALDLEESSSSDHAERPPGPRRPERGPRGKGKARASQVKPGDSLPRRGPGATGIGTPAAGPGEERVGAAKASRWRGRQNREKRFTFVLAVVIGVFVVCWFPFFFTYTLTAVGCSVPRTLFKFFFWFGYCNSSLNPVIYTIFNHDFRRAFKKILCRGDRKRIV
T2 sequence (P18825 whole entry): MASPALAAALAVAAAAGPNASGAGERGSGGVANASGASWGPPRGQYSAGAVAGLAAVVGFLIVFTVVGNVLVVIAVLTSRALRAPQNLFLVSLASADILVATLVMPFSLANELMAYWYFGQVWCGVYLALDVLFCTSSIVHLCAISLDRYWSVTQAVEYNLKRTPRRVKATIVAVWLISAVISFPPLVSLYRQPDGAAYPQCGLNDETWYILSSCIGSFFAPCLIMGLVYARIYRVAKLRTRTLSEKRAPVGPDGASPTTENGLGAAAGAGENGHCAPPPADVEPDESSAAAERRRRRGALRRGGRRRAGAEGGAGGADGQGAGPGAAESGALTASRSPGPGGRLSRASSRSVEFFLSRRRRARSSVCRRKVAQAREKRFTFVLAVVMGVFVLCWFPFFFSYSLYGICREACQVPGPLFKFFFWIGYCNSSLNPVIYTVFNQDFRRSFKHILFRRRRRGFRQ
T2 sequence (P18089 whole entry): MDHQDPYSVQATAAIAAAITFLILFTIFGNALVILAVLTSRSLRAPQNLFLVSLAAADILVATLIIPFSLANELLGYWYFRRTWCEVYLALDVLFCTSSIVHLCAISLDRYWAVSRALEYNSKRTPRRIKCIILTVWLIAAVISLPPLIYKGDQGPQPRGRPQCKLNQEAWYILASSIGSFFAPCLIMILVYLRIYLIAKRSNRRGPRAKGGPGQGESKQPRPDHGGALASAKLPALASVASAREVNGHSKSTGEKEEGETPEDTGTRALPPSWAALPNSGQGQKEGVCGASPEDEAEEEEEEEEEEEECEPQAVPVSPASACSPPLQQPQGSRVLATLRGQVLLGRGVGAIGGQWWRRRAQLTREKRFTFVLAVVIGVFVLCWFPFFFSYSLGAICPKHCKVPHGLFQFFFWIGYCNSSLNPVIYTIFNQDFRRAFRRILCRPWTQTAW
Briefly: Compound was evaluated for alpha-2 adrenergic receptor binding. The class given is protein assay.

Assay [8] has as its target T3, Adrenergic receptor alpha-1 (Homo sapiens, UniProt P35348+P25100+P35368).
T3 sequence (P35348 whole entry): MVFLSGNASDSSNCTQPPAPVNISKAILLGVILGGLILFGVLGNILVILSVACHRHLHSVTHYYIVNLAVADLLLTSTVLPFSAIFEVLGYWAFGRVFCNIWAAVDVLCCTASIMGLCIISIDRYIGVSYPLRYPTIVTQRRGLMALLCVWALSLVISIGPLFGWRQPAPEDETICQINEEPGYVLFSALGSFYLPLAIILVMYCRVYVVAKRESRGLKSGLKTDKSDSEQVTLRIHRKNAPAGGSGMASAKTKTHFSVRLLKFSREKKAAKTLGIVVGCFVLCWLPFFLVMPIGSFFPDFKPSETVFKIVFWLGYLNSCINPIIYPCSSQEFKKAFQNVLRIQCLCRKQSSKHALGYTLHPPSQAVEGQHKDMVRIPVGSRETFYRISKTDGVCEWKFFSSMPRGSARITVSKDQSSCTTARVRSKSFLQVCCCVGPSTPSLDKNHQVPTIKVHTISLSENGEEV
T3 sequence (P25100 whole entry): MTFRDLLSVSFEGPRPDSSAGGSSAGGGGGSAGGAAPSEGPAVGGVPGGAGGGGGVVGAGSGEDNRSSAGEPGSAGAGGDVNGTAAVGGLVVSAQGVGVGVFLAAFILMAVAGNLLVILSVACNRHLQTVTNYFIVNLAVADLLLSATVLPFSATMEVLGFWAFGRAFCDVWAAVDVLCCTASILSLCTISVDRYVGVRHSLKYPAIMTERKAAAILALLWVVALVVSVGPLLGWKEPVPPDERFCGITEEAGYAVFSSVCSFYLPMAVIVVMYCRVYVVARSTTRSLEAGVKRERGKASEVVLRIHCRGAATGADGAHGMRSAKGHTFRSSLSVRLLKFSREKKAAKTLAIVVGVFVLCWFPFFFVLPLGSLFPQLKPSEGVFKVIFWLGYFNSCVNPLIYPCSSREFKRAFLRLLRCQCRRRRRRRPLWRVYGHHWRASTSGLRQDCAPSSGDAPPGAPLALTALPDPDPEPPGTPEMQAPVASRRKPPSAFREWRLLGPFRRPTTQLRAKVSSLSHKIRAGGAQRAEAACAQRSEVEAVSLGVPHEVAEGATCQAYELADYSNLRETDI
T3 sequence (P35368 whole entry): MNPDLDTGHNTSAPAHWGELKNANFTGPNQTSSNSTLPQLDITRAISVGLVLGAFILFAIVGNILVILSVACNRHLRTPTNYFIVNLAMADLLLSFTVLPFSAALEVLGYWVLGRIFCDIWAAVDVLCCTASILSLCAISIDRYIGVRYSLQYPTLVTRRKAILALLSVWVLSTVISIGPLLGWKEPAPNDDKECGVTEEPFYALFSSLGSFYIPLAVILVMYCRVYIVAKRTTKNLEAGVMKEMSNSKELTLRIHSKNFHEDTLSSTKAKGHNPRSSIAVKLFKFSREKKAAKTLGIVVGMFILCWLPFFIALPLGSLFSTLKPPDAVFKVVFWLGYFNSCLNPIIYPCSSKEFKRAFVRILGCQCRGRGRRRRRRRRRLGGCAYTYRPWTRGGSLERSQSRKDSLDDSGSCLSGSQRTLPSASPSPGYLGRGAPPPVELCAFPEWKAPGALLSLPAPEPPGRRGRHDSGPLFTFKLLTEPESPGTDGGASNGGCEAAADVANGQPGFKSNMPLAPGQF
Description: Compound was evaluated for alpha-1 adrenergic receptor binding. The class given is protein assay.

Assay [9] deals with Adrenergic receptor beta (Homo sapiens, UniProt P08588+P07550+P13945). Description: Compound was evaluated for Beta adrenergic receptor binding. The class given is protein assay.
The target of assay [10] is D(1A) dopamine receptor (Homo sapiens, UniProt P21728). Briefly: Compound was evaluated for Dopamine receptor D1 binding.
Sequence of D(1A) dopamine receptor (P21728 whole entry): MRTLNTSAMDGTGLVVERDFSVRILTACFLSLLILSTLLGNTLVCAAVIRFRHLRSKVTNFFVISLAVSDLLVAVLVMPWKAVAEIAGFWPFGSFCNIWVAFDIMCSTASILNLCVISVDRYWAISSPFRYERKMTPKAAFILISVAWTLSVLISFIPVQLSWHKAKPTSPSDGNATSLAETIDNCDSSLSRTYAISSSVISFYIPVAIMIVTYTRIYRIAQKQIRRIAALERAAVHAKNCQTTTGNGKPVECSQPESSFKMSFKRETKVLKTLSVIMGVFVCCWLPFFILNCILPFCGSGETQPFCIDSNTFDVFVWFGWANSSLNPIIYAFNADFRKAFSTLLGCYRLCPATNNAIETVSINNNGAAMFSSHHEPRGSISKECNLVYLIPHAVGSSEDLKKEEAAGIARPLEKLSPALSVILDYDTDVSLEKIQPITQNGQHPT
The target of assay [11] is D(2) dopamine receptor (Homo sapiens, UniProt P14416). Description: Compound was evaluated for Dopamine receptor D2 binding.
Sequence of D(2) dopamine receptor (P14416 whole entry): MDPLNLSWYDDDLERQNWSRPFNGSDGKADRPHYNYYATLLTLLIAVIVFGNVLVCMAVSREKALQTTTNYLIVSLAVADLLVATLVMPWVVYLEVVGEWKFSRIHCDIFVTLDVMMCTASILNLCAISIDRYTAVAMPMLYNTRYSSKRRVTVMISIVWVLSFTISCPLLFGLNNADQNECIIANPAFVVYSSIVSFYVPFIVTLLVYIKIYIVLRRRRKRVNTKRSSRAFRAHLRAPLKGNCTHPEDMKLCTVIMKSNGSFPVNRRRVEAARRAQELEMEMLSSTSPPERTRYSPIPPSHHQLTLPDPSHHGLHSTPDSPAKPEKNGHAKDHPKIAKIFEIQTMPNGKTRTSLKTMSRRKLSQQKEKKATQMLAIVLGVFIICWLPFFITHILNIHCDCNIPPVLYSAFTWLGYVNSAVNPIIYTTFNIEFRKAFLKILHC

A word on the EC50: it is the concentration that produces a half-maximal response. As a reminder, the Ki is a dissociation constant, usually derived from enzyme kinetics or from competition with a known ligand. High values mean lower affinity, low ones higher affinity.

T1 sequence (Q62758 whole entry): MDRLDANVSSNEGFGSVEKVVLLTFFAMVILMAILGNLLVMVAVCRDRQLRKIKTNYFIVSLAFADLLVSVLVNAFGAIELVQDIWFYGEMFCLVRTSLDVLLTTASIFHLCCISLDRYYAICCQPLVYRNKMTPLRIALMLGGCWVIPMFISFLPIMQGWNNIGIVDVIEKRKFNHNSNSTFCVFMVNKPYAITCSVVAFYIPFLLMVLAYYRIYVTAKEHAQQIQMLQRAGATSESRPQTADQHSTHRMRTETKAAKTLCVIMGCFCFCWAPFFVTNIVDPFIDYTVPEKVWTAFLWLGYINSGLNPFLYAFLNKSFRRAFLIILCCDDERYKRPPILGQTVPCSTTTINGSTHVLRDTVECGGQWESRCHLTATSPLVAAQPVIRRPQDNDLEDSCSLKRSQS

For the compound `COc1cc(N)c(Cl)cc1C(=O)N[C@@H]1C2CC3CN(C2)CC31` (some centres not stated), the concentration for a half-maximal effect (EC50) result in assay [1] is “Not Active”.

As for `COc1cc(N)c(Cl)cc1C(=O)NC[C@@H]1CCN2CCC[C@@]12C` (racemic), in assay [2], a half-maximal response (EC50) required 449 nM.

Turning to `COc1cc(N)c(Cl)cc1C(=O)NC[C@@H]1CCN2CCC[C@@H]12`, the inhibition constant (Ki) in assay [3] was over 10000 nM; in assay [4], over 10000 nM; in assay [6], 152 nM; in assay [7] it was over 10000 nM; in [8] it was over 10000 nM; in assay [9], over 10000 nM. Also, the inhibitory constant (Ki) in [10] and in assay [11] was over 10000 nM throughout. Moreover, the values for the concentration giving a half-maximal response (EC50) in assay [2] and in [5] were 23 nM and 66 nM, respectively.
